{"source": "PubChem BioAssay AID1259409", "about": "(Chemical Carcinogenesis Research Information System (CCRIS), 2018)", "origin": "cited, not measured here", "tested_on": "rodent chemically induced tumor inhibition, incidence and multiplicity", "test": "CCRIS tumor inhibitor studies", "conditions": "Promoter: NONE USED", "data": [{"smiles": "N#CSCc1ccccc1", "values": [{"measurement": "tumour outcome (control, treated, inhibition, significance)", "setting": "Carcinogen: 7,12-DIMETHYLBENZ[A]ANTHRACENE, 57-97-6, Dose [Inhibitor]: 0, 25 PPM IN DIET BEGINNING 2 WK PRIOR TO CARCINOGEN DOSE AND CONTINUING FOR 1 WK POST CARCINOGEN DOSE (STUDY DURATION:, Route [Inhibitor]: ORAL, Species: RAT, Strain/Sex: SPRAGUE-DAWLEY/FEMALE, Target Tissue: Type of Lesion: MAMMARY GLAND: TUMOR, Dose [Carcinogen]: 10 MG IN 1 ML OLIVE OIL ONCE AT 7 WK OF AGE", "value": "19/21 (91%), 19/21 (91%), 0%"}, {"measurement": "tumour outcome (control, treated, inhibition, significance)", "setting": "Carcinogen: 7,12-DIMETHYLBENZ[A]ANTHRACENE, 57-97-6, Dose [Inhibitor]: 0.03 NMOL/G DIET DAILY FOR 17 WK STARTING 1 WK PRIOR TO CARCINOGEN TREATMENT AND CONTINUING THROUGH THE END OF THE STUDY, Route [Inhibitor]: ORAL, Species: RAT, Strain/Sex: SPRAGUE-DAWLEY/FEMALE, Target Tissue: Type of Lesion: MAMMARY GLAND: TUMOR, Dose [Carcinogen]: 12 MG IN 1 ML OLIVE OIL ONCE", "value": "79%, 8%, 90%, p<0.001"}, {"measurement": "tumour outcome (control, treated, inhibition, significance)", "setting": "Carcinogen: 7,12-DIMETHYLBENZ[A]ANTHRACENE, 57-97-6, Dose [Inhibitor]: 5.0 MG/G DIET AT AGE 9 WK SIMULTANEOUSLY WITH CARCINOGEN, 3/WK FOR 4 WK (STUDY DURATION: 20 WK), Route [Inhibitor]: ORAL, Species: MOUSE, Strain/Sex: ICR/FEMALE, Target Tissue: Type of Lesion: FORESTOMACH: TUMOR, Dose [Carcinogen]: 0.05 MG/G DIET AT AGE 9 WK, 3/WK FOR 4 WK", "value": "87%, 80%, 8%, not significant"}, {"measurement": "tumour outcome (control, treated, inhibition, significance)", "setting": "Carcinogen: 7,12-DIMETHYLBENZ[A]ANTHRACENE, 57-97-6, Dose [Inhibitor]: 50 MG ONCE 2 HR BEFORE DMBA TREATMENT (STUDY DURATION: 18 WK), Route [Inhibitor]: INTRAGASTRIC, Species: RAT, Strain/Sex: SPRAGUE-DAWLEY/FEMALE, Target Tissue: Type of Lesion: MAMMARY GLAND: TUMOR, Dose [Carcinogen]: 12 MG IN 1 ML OLIVE OIL AT AGE 7 WK 2 HR AFTER AGENT TREATMENT", "value": "77%, 55%, 28%, not significant"}, {"measurement": "tumour outcome (control, treated, inhibition, significance)", "setting": "Carcinogen: 7,12-DIMETHYLBENZ[A]ANTHRACENE, 57-97-6, Dose [Inhibitor]: 50 MG ONCE 4 HR BEFORE DMBA TREATMENT (STUDY DURATION: 18 WK), Route [Inhibitor]: INTRAGASTRIC, Species: RAT, Strain/Sex: SPRAGUE-DAWLEY/FEMALE, Target Tissue: Type of Lesion: MAMMARY GLAND: TUMOR, Dose [Carcinogen]: 12 MG IN 1 ML OLIVE OIL AT AGE 7 WK 4 HR AFTER AGENT TREATMENT", "value": "100%, 36%, 64%, p<0.001"}, {"measurement": "tumour outcome (control, treated, inhibition, significance)", "setting": "Carcinogen: BENZO[A]PYRENE, 50-32-8, Dose [Inhibitor]: 0, 0.045 UMOL/G DIET BEGINNING 1 WK PRIOR TO CARCINOGEN TREATMENT AND CONTINUING FOR 1 WK POST CARCINOGEN TREATMENT FOLL, Route [Inhibitor]: ORAL, Species: MOUSE, Strain/Sex: CD-1/FEMALE, Target Tissue: Type of Lesion: FORESTOMACH: PAPILLOMA, Dose [Carcinogen]: 1 MG IN 0.2 ML CORN OIL 2/WK FOR 4 WK", "value": "85%, 84%, 1%, not significant"}, {"measurement": "tumour outcome (control, treated, inhibition, significance)", "setting": "Carcinogen: DIETHYLNITROSAMINE, 55-18-5, Dose [Inhibitor]: 0, 100 PPM IN DIET FOR DURATION OF STUDY BEGINNING 1 WK PRIOR TO CARCINOGEN DOSE (STUDY DURATION: 53 WK), Route [Inhibitor]: ORAL, Species: RAT, Strain/Sex: ACI/MALE, Target Tissue: Type of Lesion: LIVER: HEPATOCELLULAR ADENOMA, Dose [Carcinogen]: 200 MG/KG BW ONCE", "value": "10/18 (55%), 6/16 (38%), 31%, not significant"}, {"measurement": "tumour outcome (control, treated, inhibition, significance)", "setting": "Carcinogen: DIETHYLNITROSAMINE, 55-18-5, Dose [Inhibitor]: 0, 100 PPM IN DIET FOR DURATION OF STUDY BEGINNING 1 WK PRIOR TO CARCINOGEN DOSE (STUDY DURATION: 53 WK), Route [Inhibitor]: ORAL, Species: RAT, Strain/Sex: ACI/MALE, Target Tissue: Type of Lesion: LIVER: HEPATOCELLULAR CARCINOMA, Dose [Carcinogen]: 200 MG/KG BW ONCE", "value": "6/18 (33%), 2/16 (13%), 61%, not significant"}, {"measurement": "tumour outcome (control, treated, inhibition, significance)", "setting": "Carcinogen: METHYLAZOXYMETHANOL ACETATE, 592-62-1, Dose [Inhibitor]: 0, 100 PPM IN DIET FOR 4 WK BEGINNING 1 WK PRIOR TO CARCINOGEN TREATMENT (STUDY DURATION: 49 WK), Route [Inhibitor]: ORAL, Species: RAT, Strain/Sex: ACI/FEMALE, Target Tissue: Type of Lesion: COLON: CARCINOMA, Dose [Carcinogen]: 25 MG/KG BW 1/WK FOR 3 WK", "value": "11/18 (61%), 10/12 (83%), -36%, not significant"}, {"measurement": "tumour outcome (control, treated, inhibition, significance)", "setting": "Carcinogen: METHYLAZOXYMETHANOL ACETATE, 592-62-1, Dose [Inhibitor]: 0, 100 PPM IN DIET FOR 4 WK BEGINNING 1 WK PRIOR TO CARCINOGEN TREATMENT (STUDY DURATION: 49 WK), Route [Inhibitor]: ORAL, Species: RAT, Strain/Sex: ACI/FEMALE, Target Tissue: Type of Lesion: SMALL INTESTINE: ADENOMA OR CARCINOMA, Dose [Carcinogen]: 25 MG/KG BW 1/WK FOR 3 WK", "value": "11/18 (61%), 8/12 (67%), -10%, not significant"}, {"measurement": "tumour outcome (control, treated, inhibition, significance)", "setting": "Carcinogen: METHYLAZOXYMETHANOL ACETATE, 592-62-1, Dose [Inhibitor]: 0, 100 PPM IN DIET FOR 46 WK BEGINNING 1 WK POST CARCINOGEN TREATMENT (STUDY DURATION: 49 WK), Route [Inhibitor]: ORAL, Species: RAT, Strain/Sex: ACI/FEMALE, Target Tissue: Type of Lesion: COLON: ADENOMA OR CARCINOMA, Dose [Carcinogen]: 25 MG/KG BW 1/WK FOR 3 WK", "value": "15/18 (83%), 18/19 (95%), -14%, not significant"}, {"measurement": "tumour outcome (control, treated, inhibition, significance)", "setting": "Carcinogen: METHYLAZOXYMETHANOL ACETATE, 592-62-1, Dose [Inhibitor]: 0, 100 PPM IN DIET FOR 46 WK BEGINNING 1 WK POST CARCINOGEN TREATMENT (STUDY DURATION: 49 WK), Route [Inhibitor]: ORAL, Species: RAT, Strain/Sex: ACI/FEMALE, Target Tissue: Type of Lesion: SMALL INTESTINE: ADENOMA OR CARCINOMA, Dose [Carcinogen]: 25 MG/KG BW 1/WK FOR 3 WK", "value": "11/18 (61%), 8/19 (42%), 31%, not significant"}, {"measurement": "tumour outcome (control, treated, inhibition, significance)", "setting": "Carcinogen: METHYLAZOXYMETHANOL ACETATE, 592-62-1, Dose [Inhibitor]: 0, 400 PPM IN DIET FOR 4 WK BEGINNING 1 WK PRIOR TO CARCINOGEN TREATMENT (STUDY DURATION: 49 WK), Route [Inhibitor]: ORAL, Species: RAT, Strain/Sex: ACI/FEMALE, Target Tissue: Type of Lesion: COLON: ADENOMA OR CARCINOMA, Dose [Carcinogen]: 25 MG/KG BW 1/WK FOR 3 WK", "value": "15/18 (83%), 17/21 (81%), 2%, not significant"}, {"measurement": "tumour outcome (control, treated, inhibition, significance)", "setting": "Carcinogen: METHYLAZOXYMETHANOL ACETATE, 592-62-1, Dose [Inhibitor]: 0, 400 PPM IN DIET FOR 4 WK BEGINNING 1 WK PRIOR TO CARCINOGEN TREATMENT (STUDY DURATION: 49 WK), Route [Inhibitor]: ORAL, Species: RAT, Strain/Sex: ACI/FEMALE, Target Tissue: Type of Lesion: SMALL INTESTINE: CARCINOMA, Dose [Carcinogen]: 25 MG/KG BW 1/WK FOR 3 WK", "value": "10/18 (56%), 1/21 (5%), 91%, not calculated"}, {"measurement": "tumour outcome (control, treated, inhibition, significance)", "setting": "Carcinogen: METHYLAZOXYMETHANOL ACETATE, 592-62-1, Dose [Inhibitor]: 0, 400 PPM IN DIET FOR 46 WK BEGINNING 1 WK POST CARCINOGEN TREATMENT (STUDY DURATION: 49 WK), Route [Inhibitor]: ORAL, Species: RAT, Strain/Sex: ACI/FEMALE, Target Tissue: Type of Lesion: COLON: ADENOMA OR CARCINOMA, Dose [Carcinogen]: 25 MG/KG BW 1/WK FOR 3 WK", "value": "15/18 (83%), 13/18 (72%), 13%, not significant"}, {"measurement": "tumour outcome (control, treated, inhibition, significance)", "setting": "Carcinogen: METHYLAZOXYMETHANOL ACETATE, 592-62-1, Dose [Inhibitor]: 0, 400 PPM IN DIET FOR 46 WK BEGINNING 1 WK POST CARCINOGEN TREATMENT (STUDY DURATION: 49 WK), Route [Inhibitor]: ORAL, Species: RAT, Strain/Sex: ACI/FEMALE, Target Tissue: Type of Lesion: SMALL INTESTINE: ADENOMA OR CARCINOMA, Dose [Carcinogen]: 25 MG/KG BW 1/WK FOR 3 WK", "value": "11/18 (61%), 3/18 (17%), 72%, p<0.01"}]}]}
